Results on 24 compounds are retold here after the NIST ThermoML archive (doi:10.1016/j.jct.2017.11.017).

A short description of this series: activity coefficient (dimensionless); of the first substance listed, at infinite dilution; xn = mol fraction of the nth substance listed. Particulars: 101.33 kPa, Liquid, Chromatography, x1 = 0.

The structures appear in SMILES notation. ± gives the expanded uncertainty stated by the source.

As for `C#CCCC` [1-pentyne] + C[n+]1ccn(CCCO)c1.N#CN=C=[N-], the activity coefficient by setting is: (298.15 K) 11.3 ± 0.8; (308.15 K) 11.5 ± 0.8; (318.15 K) 11.7 ± 0.8; (328.15 K) 11.8 ± 0.8; (338.15 K) 12 ± 0.8; (348.15 K) 12.1 ± 0.8. The activity coefficient (358.15 K) was 12.3 ± 0.8.
Take `CC(C)CC(C)(C)C` [2,2,4-trimethylpentane] + C[n+]1ccn(CCCO)c1.N#CN=C=[N-]: the activity coefficient runs as follows: (298.15 K) 767 ± 53; (308.15 K) 662 ± 46; (318.15 K) 579 ± 40; (328.15 K) 509 ± 35.
On the same counts, the results for `CCOC(C)(C)C` [2-ethoxy-2-methylpropane] + C[N+]1(CCCO)CCOCC1.N#C[N-]C#N are 339 ± 23, 275 ± 19, 227 ± 16 and 191 ± 13.
With `CCOC(C)(C)C` [2-ethoxy-2-methylpropane] + C[n+]1ccn(CCCO)c1.N#CN=C=[N-], the activity coefficient reads like this: (318.15 K) 78.5 ± 5.4; (328.15 K) 76.2 ± 5.2; (338.15 K) 74.5 ± 5.1; (348.15 K) 73.1 ± 5; (358.15 K) 72.1 ± 4.9; (368.15 K) 70.5 ± 4.8.
For `CCC(C)(C)OC` [2-methoxy-2-methylbutane] + C[N+]1(CCCO)CCOCC1.N#C[N-]C#N, the activity coefficient turned out to be 97.2 ± 6.7 (308.15 K); 90.2 ± 6.2 (318.15 K); 84.1 ± 5.8 (328.15 K); 78.6 ± 5.4 (338.15 K); 74 ± 5.1 (348.15 K); 69.9 ± 4.8 (358.15 K). Further, the activity coefficient (368.15 K) came out at 66 ± 5.
Take `CCC(C)(C)OC` [2-methoxy-2-methylbutane] + C[n+]1ccn(CCCO)c1.N#CN=C=[N-]: the activity coefficient was 36.8 ± 2.5 (318.15 K); 37 ± 2.5 (328.15 K); 37.2 ± 2.5 (338.15 K); 37.5 ± 2.6 (348.15 K); 37.7 ± 2.6 (358.15 K); 38.1 ± 2.6 (368.15 K).
Consider `COC(C)(C)C` [2-methoxy-2-methylpropane] + C[N+]1(CCCO)CCOCC1.N#C[N-]C#N, for which the activity coefficient (308.15 K) is 55.8 ± 3.8; the activity coefficient (318.15 K) was found to be 52.4 ± 3.6; the activity coefficient (328.15 K) is 49.7 ± 3.4; the activity coefficient (338.15 K) amounted to 47.1 ± 3.2; the activity coefficient (348.15 K) was found to be 45 ± 3.1; the activity coefficient (358.15 K) stood at 42.9 ± 2.9. The activity coefficient (368.15 K) was 41.3 ± 2.8.
As to `COC(C)(C)C` [2-methoxy-2-methylpropane] + C[n+]1ccn(CCCO)c1.N#CN=C=[N-], the activity coefficient reads like this: (318.15 K) 22.8 ± 1.6; (328.15 K) 23.2 ± 1.6; (338.15 K) 23.5 ± 1.6; (348.15 K) 24 ± 1.6; (358.15 K) 24.3 ± 1.7; (368.15 K) 24.7 ± 1.7.
Turning to `CC(C)CO` [2-methyl-1-propanol] + C[N+]1(CCCO)CCOCC1.N#C[N-]C#N, the activity coefficient is, setting by setting: (318.15 K) 4.72 ± 0.32; (328.15 K) 4.54 ± 0.31; (338.15 K) 4.38 ± 0.3; (348.15 K) 4.25 ± 0.29; (358.15 K) 4.12 ± 0.28; (368.15 K) 4 ± 0.27.
For `CC(C)CO` [2-methyl-1-propanol] + C[n+]1ccn(CCCO)c1.N#CN=C=[N-], the activity coefficient by setting is: (318.15 K) 2.79 ± 0.19; (328.15 K) 2.72 ± 0.19; (338.15 K) 2.68 ± 0.18; (348.15 K) 2.64 ± 0.18; (358.15 K) 2.6 ± 0.18; (368.15 K) 2.58 ± 0.18.
Turning to `CC(C)(C)O` [2-methylpropan-2-ol] + C[N+]1(CCCO)CCOCC1.N#C[N-]C#N, the activity coefficient reads like this: (318.15 K) 4.35 ± 0.3; (328.15 K) 4.27 ± 0.29; (338.15 K) 4.21 ± 0.29; (348.15 K) 4.17 ± 0.28; (358.15 K) 4.14 ± 0.28; (368.15 K) 4.09 ± 0.28.
Turning to `CC(C)(C)O` [2-methylpropan-2-ol] + C[n+]1ccn(CCCO)c1.N#CN=C=[N-], the activity coefficient by setting is: (318.15 K) 2.58 ± 0.18; (328.15 K) 2.63 ± 0.18; (338.15 K) 2.68 ± 0.18; (348.15 K) 2.71 ± 0.18; (358.15 K) 2.74 ± 0.19; (368.15 K) 2.79 ± 0.19.
For the compound `CCC(C)CC` [3-methylpentane] + C[n+]1ccn(CCCO)c1.N#CN=C=[N-], the activity coefficient came to 327 ± 22 (298.15 K), 284 ± 20 (308.15 K), 249 ± 17 (318.15 K) and 221 ± 15 (328.15 K).
As to `C=C(C)c1ccccc1` [(1-methylethenyl)benzene] + C[N+]1(CCCO)CCOCC1.N#C[N-]C#N, the activity coefficient (318.15 K) came to 18.1 ± 1.2; the activity coefficient (328.15 K) worked out at 18.9 ± 1.3; the activity coefficient (338.15 K) amounted to 19.5 ± 1.3; the activity coefficient (348.15 K) stood at 20.1 ± 1.4; the activity coefficient (358.15 K) was 20.7 ± 1.4; the activity coefficient (368.15 K) came to 21.3 ± 1.5.
As to `C=C(C)c1ccccc1` [(1-methylethenyl)benzene] + C[n+]1ccn(CCCO)c1.N#CN=C=[N-], the activity coefficient runs as follows: (318.15 K) 10.2 ± 0.7; (328.15 K) 10.9 ± 0.7; (338.15 K) 11.5 ± 0.8; (348.15 K) 12.1 ± 0.8; (358.15 K) 12.7 ± 0.9; (368.15 K) 13.3 ± 0.9.
As for `CC(C)=O` [acetone] + C[N+]1(CCCO)CCOCC1.N#C[N-]C#N, the activity coefficient was found to be 2.24 ± 0.15 (318.15 K); 2.3 ± 0.16 (328.15 K); 2.37 ± 0.16 (338.15 K); 2.45 ± 0.17 (348.15 K); 2.51 ± 0.17 (358.15 K); 2.59 ± 0.18 (368.15 K).
Take `CC(C)=O` [acetone] + C[n+]1ccn(CCCO)c1.N#CN=C=[N-]: the activity coefficient was found to be 1.76 ± 0.12 (318.15 K); 1.83 ± 0.12 (328.15 K); 1.92 ± 0.13 (338.15 K); 2 ± 0.14 (348.15 K); 2.09 ± 0.14 (358.15 K); 2.19 ± 0.15 (368.15 K).
Regarding `CC#N` [acetonitrile] + C[N+]1(CCCO)CCOCC1.N#C[N-]C#N, the activity coefficient is 1.25 ± 0.08 (318.15 K); 1.29 ± 0.08 (328.15 K); 1.33 ± 0.09 (338.15 K); 1.37 ± 0.09 (348.15 K); 1.4 ± 0.09 (358.15 K); 1.45 ± 0.1 (368.15 K).
`CC#N` [acetonitrile] + C[n+]1ccn(CCCO)c1.N#CN=C=[N-]: the activity coefficient turned out to be 1.19 ± 0.08 (318.15 K); 1.23 ± 0.08 (328.15 K); 1.29 ± 0.08 (338.15 K); 1.33 ± 0.09 (348.15 K); 1.37 ± 0.09 (358.15 K); 1.41 ± 0.09 (368.15 K).
In the case of `c1ccccc1` [benzene] + C[N+]1(CCCO)CCOCC1.N#C[N-]C#N, the activity coefficient was determined as 6.97 ± 0.48 (318.15 K); 7.09 ± 0.48 (328.15 K); 7.2 ± 0.49 (338.15 K); 7.33 ± 0.5 (348.15 K); 7.41 ± 0.51 (358.15 K); 7.57 ± 0.52 (368.15 K).
Regarding `c1ccccc1` [benzene] + C[n+]1ccn(CCCO)c1.N#CN=C=[N-], the activity coefficient runs as follows: (318.15 K) 4.41 ± 0.3; (328.15 K) 4.56 ± 0.31; (338.15 K) 4.74 ± 0.32; (348.15 K) 4.92 ± 0.34; (358.15 K) 5.08 ± 0.35; (368.15 K) 5.22 ± 0.36.
Regarding `CCCCO` [butan-1-ol] + C[N+]1(CCCO)CCOCC1.N#C[N-]C#N, the activity coefficient is, setting by setting: (318.15 K) 4.66 ± 0.32; (328.15 K) 4.5 ± 0.31; (338.15 K) 4.39 ± 0.3; (348.15 K) 4.26 ± 0.29; (358.15 K) 4.17 ± 0.28; (368.15 K) 4.08 ± 0.28.
On to `CCCCO` [butan-1-ol] + C[n+]1ccn(CCCO)c1.N#CN=C=[N-], for which the activity coefficient (318.15 K) is 2.8 ± 0.19; the activity coefficient (328.15 K) stood at 2.75 ± 0.19; the activity coefficient (338.15 K) turned out to be 2.73 ± 0.19; the activity coefficient (348.15 K) stood at 2.7 ± 0.18; the activity coefficient (358.15 K) worked out at 2.69 ± 0.18; the activity coefficient (368.15 K) stood at 2.68 ± 0.18.
For the compound `CCC(C)O` (stereo unspecified) [butan-2-ol] + C[N+]1(CCCO)CCOCC1.N#C[N-]C#N, the activity coefficient turned out to be 4.46 ± 0.3 (318.15 K); 4.35 ± 0.3 (328.15 K); 4.27 ± 0.29 (338.15 K); 4.2 ± 0.29 (348.15 K); 4.15 ± 0.28 (358.15 K); 4.09 ± 0.28 (368.15 K).
